Results reported in patent publication US10377772B2, “Macrocyclic LRRK2 kinase inhibitors” (Oncodesign S.A., priority 2014, dated 2019).

These compounds were tested against LRRK2 recombinant protein (Homo sapiens (Human), UniProt Q5S007) (assay: radiometric protein kinase assay (33PanQinase Activity Assay) for LRRK2). Conditions: ATP 0.3 μM, LRRK2 7.3 nM, substrate GSK3(14-27), 30° C. for 60 minutes.
Format: biochemical
Experimental: The inhibition of LRRK2 kinase was assessed using LRRK2 recombinant protein in an in vitro peptide-based kinase assay.
A radiometric protein kinase assay (^33PanQinase® Activity Assay) is used for measuring the kinase activity. All assays are performed in 96-well FlashPlates™ from Perkin Elmer in a 50 μl reaction volume. The reaction cocktail is pipetted in 4 steps in the following order: • 10 μl of non-radioactive ATP solution (in H2O) • 25 μl of assay buffer/[γ-^33P]-ATP mixture • 5 μl of test sample in 10% DMSO • 10 μl of enzyme/substrate mixture
The assay for LRRK2 contains 70 mM HEPES-NaOH pH 7.5, 3 mM MgCl2, 3 mM MnCl2, 3 μM Na-orthovanadate, 1.2 mM DTT, 50 μg/ml PEG20000, ATP (0.3 μM), [γ-^33P]-ATP (approx. […] per well), protein kinase LRRK2 (7.3 nM) and substrate (GSK3(14-27), 1.0 μg/50 μl).
The kinase is obtained from Invitrogen Corporation.
The reaction cocktails were incubated at 30° C. for 60 minutes. The reaction was stopped with 50 μl of 2% (v/v) H3PO4, plates were aspirated and washed two times with 200 μl 0.9% (w/v) NaCl. Incorporation of ^33Pi (counting of “cpm”) was determined with a microplate scintillation counter.
The compounds are dissolved to 10 mM in DMSO. Where needed, solutions are sonicated in a bath sonicator.
Table 2 provides the pIC50 values of the compounds according to the invention, obtained using the above mentioned kinase assay.

LRRK2 recombinant protein, sequence (Q5S007 whole entry): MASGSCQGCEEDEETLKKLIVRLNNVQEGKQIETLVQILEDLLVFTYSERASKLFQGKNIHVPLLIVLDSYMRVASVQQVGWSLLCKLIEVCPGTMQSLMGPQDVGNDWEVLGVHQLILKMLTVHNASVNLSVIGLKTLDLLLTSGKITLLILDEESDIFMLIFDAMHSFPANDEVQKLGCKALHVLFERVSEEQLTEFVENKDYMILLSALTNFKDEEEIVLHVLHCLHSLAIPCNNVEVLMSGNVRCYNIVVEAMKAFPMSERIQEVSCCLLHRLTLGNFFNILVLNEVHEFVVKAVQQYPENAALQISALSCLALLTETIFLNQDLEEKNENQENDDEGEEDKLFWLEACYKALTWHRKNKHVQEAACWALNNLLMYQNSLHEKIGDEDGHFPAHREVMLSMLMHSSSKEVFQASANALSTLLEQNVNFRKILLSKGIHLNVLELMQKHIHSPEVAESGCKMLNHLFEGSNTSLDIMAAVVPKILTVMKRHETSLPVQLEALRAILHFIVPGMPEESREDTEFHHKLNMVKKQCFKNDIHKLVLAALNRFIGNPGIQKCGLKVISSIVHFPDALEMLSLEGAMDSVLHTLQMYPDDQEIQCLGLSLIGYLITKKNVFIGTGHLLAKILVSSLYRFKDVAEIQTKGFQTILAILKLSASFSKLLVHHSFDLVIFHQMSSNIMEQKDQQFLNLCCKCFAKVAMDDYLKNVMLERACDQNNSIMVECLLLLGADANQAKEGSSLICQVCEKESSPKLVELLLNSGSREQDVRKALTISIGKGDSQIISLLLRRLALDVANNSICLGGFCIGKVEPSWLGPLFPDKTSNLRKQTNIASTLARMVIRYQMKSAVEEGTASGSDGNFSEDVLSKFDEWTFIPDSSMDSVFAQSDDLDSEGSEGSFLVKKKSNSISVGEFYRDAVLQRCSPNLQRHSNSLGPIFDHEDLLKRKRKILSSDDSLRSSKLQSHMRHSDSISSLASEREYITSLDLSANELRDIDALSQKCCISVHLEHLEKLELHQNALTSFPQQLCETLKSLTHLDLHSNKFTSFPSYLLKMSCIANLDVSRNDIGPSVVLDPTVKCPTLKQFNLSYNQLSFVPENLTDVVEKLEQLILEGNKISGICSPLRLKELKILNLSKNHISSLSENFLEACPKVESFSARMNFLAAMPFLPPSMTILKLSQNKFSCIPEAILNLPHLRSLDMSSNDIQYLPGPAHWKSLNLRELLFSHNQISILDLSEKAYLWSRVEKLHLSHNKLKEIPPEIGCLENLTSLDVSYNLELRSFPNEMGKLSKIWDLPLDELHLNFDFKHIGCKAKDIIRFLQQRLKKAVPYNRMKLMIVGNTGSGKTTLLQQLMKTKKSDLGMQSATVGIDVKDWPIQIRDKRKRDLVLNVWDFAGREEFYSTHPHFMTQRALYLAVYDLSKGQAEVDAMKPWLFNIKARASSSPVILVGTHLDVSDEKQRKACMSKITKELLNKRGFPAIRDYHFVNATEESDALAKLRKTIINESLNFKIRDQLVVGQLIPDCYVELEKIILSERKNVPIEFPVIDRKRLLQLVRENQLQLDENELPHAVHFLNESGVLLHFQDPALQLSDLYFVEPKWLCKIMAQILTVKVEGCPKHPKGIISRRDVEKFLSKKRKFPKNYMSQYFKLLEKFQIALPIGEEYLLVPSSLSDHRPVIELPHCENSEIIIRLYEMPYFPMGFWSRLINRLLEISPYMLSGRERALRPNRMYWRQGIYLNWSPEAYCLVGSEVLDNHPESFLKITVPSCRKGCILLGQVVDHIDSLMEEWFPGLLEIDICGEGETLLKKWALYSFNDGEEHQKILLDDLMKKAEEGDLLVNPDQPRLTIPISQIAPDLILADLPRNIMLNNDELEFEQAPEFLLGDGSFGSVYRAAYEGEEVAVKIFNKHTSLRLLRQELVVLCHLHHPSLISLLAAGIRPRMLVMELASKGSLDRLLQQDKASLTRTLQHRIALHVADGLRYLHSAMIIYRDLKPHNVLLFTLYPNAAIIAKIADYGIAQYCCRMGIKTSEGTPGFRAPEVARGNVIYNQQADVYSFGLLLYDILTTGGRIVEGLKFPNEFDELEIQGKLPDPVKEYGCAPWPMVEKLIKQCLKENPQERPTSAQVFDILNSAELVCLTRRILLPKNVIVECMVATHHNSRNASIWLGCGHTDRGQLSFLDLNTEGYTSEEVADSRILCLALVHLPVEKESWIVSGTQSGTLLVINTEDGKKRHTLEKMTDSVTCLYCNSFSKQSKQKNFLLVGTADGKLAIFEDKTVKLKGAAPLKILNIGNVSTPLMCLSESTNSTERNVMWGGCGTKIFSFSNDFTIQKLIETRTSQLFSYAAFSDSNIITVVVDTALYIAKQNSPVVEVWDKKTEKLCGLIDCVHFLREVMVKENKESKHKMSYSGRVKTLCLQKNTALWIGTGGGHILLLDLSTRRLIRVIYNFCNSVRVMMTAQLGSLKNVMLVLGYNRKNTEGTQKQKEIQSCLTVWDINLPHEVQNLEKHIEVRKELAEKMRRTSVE

IC50 [µM]	Structure (SMILES)
< 0.1	c1cc2cc(c1)-c1cnn3ccc(nc13)NCCN1CCC[C@H]1CO2 [Example N1]
< 0.1	Fc1ccc2cc1-c1cnn3ccc(nc13)NCCN1CCC[C@H]1CN2 [Example N2]
< 0.1	Fc1ccc2cc1-c1cnn3ccc(nc13)NC1CCN(CCN2)CC1 [Example N3]
< 0.1	Fc1ccc2cc1-c1cnn3ccc(nc13)NCCN1CCC(CC1)N2 [Example N4]
< 0.1	Fc1ccc2cc1-c1cnn3ccc(nc13)NCCC1CCCN1CCN2 (stereo not drawn) [Example N5]
< 0.1	Fc1ccc2cc1-c1cnn3ccc(nc13)NC1CCN(CCCN2)C1 (stereo not drawn) [Example N6]
< 0.1	Fc1ccc2cc1-c1cnn3ccc(nc13)OCCN1CCC(CC1)N2 [Example N7]
< 0.1	Fc1ccc2cc1-c1cnn3ccc(nc13)NCCN1CCC[C@H]1CO2 [Example N8]
0.1 to 1	Fc1ccc2cc1-c1cnn3ccc(nc13)OC1CCN(CCN2)CC1 [Example N9]
< 0.1	Cc1cc(F)c2cc1NC[C@@H]1CCCN1CCNc1ccn3ncc-2c3n1 [Example N10]
< 0.1	CN1CCN2CCC[C@H]2COc2ccc(F)c(c2)-c2cnn3ccc1nc23 [Example N11]
< 0.1	Fc1ccc2cc1-c1cnn3ccc(nc13)NCCN1C[C@H](F)C[C@H]1CO2 [Example N12]
0.1 to 1	Fc1ccc2cc1-c1cnn3ccc(nc13)OCCCN1CCC[C@H]1CN2 [Example N13]
< 0.1	Fc1ccc2cc1-c1cnn3ccc(nc13)NCCCN1CCC[C@H]1CO2 [Example N14]
< 0.1	CN1c2ccn3ncc(c3n2)-c2cc(ccc2F)OCCN2CCC1CC2 [Example N15]
< 0.1	CN1CCN2CCC[C@H]2CNc2ccc(F)c(c2)-c2cnn3ccc1nc23 [Example N16]
< 0.1	Fc1ccc2cc1-c1cnn3ccc(nc13)NCCN1CCCC[C@H]1CO2 [Example N17]
< 0.1	Fc1ccc2cc1-c1cnn3ccc(nc13)NCCN1CCCC[C@H](C1)O2 [Example N18]
< 0.1	CN1CCN2CCCC[C@H]2COc2ccc(F)c(c2)-c2cnn3ccc1nc23 [Example N19]
< 0.1	Fc1ccc2cc1-c1cnn3ccc(nc13)NCCN1CCNC[C@H]1CO2 [Example N20]
< 0.1	Fc1ccc2cc1-c1cnn3ccc(nc13)OCCN1CCC[C@H]1CN2 [Example N21]

IC50 [µM]	Structure (SMILES)
< 0.1	Fc1ccc2cc1-c1cnn3ccc(nc13)NCCN1CCOC[C@H]1CO2 [Example N22]
< 0.1	CN1CCN2CCNc3ccn4ncc(c4n3)-c3cc(ccc3F)OC[C@@H]2C1 [Example N23]
< 0.1	CN1CCN2CCN(C)c3ccn4ncc(c4n3)-c3cc(ccc3F)OC[C@@H]2C1 [Example N24]
< 0.1	CN1CCN2CCOC[C@H]2COc2ccc(F)c(c2)-c2cnn3ccc1nc23 [Example N25]
< 0.1	Fc1cc(Cl)c2cc1-c1cnn3ccc(nc13)NCCN1CCC[C@H]1CO2 [Example N26]
< 0.1	Fc1ccc2cc1-c1cnn3ccc(nc13)NCCN1C[C@H]3CCCN3C[C@H]1CO2 [Example N27]
< 0.1	Fc1ccc2cc1-c1cnn3ccc(nc13)NCCN1CCNC[C@H](C1)O2 [Example N28]
< 0.1	CN1CCN2C[C@H]3CCCN3C[C@H]2COc2ccc(F)c(c2)-c2cnn3ccc1nc23 [Example N29]
< 0.1	Fc1ccc2cc1-c1cnn3ccc(nc13)NCCN1C[C@H]3CCCN3C[C@@H]1CO2 [Example N30]
< 0.1	CN1CCN2C[C@H](CN3CCC[C@H]3C2)Oc2ccc(F)c(c2)-c2cnn3ccc1nc23 [Example N31]
< 0.1	CC(=O)N1CCN2CCNc3ccn4ncc(c4n3)-c3cc(ccc3F)OC[C@@H]2C1 [Example N32]
< 0.1	Fc1ccc2cc1-c1cnn3ccc(nc13)NCCN1CCC(CC1)O2 [Example N33]
< 0.1	CN1CCN2CCC(CC2)Oc2ccc(F)c(c2)-c2cnn3ccc1nc23 [Example N34]
< 0.1	Fc1ccc2cc1-c1cnn3ccc(nc13)NCCN1CCNC[C@@H]1CO2 [Example N35]
< 0.1	CN1CCN2CCNc3ccn4ncc(c4n3)-c3cc(ccc3F)OC[C@H]2C1 [Example N36]
< 0.1	Fc1ccc2cc1-c1cnn3ccc(nc13)CCCN1CCC[C@H]1CO2 [Example N37]
< 0.1	Fc1ccc2cc1-c1cnn3ccc(nc13)NCCN1C[C@@H]3CCCN3C[C@H]1CO2 [Example N38]
0.1 to 1	Fc1ccc2cc1-c1cnn3ccc(nc13)NCCN1C[C@@H](F)C[C@H]1CO2 [Example N39]
< 0.1	C[C@H]1C[C@@H]2CCN1CCNc1ccn3ncc(c3n1)-c1cc(ccc1F)O2 [Example N40]
< 0.1	Fc1ccc2cc1-c1cnn3ccc(nc13)NCCN1CCC=C[C@H]1CO2 [Example N41]
< 0.1	CN1CCN2C[C@@H]3CCCN3C[C@H]2COc2ccc(F)c(c2)-c2cnn3ccc1nc23 [Example N42]

IC50 [µM]	Structure (SMILES)
< 0.1	Fc1ccc2cc1-c1cnn3ccc(nc13)NCCN1C[C@@H](CN3CCC[C@H]3C1)O2 [Example N43]
< 0.1	CN1CCN2C[C@@H](CN3CCC[C@H]3C2)Oc2ccc(F)c(c2)-c2cnn3ccc1nc23 [Example N44]
< 0.1	C[C@@H]1CN2CCNc3ccn4ncc(c4n3)-c3cc(ccc3F)OC[C@@H]2CN1 [Example N45]
< 0.1	C[C@@H]1CN2CCNc3ccn4ncc(c4n3)-c3cc(ccc3F)OC[C@@H]2CN1C [Example N46]
< 0.1	C[C@@H]1CN2CCNc3ccn4ncc(c4n3)-c3cc(ccc3F)OC[C@@H]2CN1C1CC1 [Example N47]
< 0.1	CCCN1C[C@H]2COc3ccc(F)c(c3)-c3cnn4ccc(nc34)NCCN2C[C@H]1C [Example N48]
< 0.1	C[C@@H]1CN2CCNc3ccn4ncc(c4n3)-c3cc(ccc3F)OC[C@@H]2CN1CC1CC1 [Example N49]
< 0.1	CCN1C[C@H]2COc3ccc(F)c(c3)-c3cnn4ccc(nc34)NCCN2C[C@H]1C [Example N50]
< 0.1	CC(C)[C@H]1CN2CCNc3ccn4ncc(c4n3)-c3cc(ccc3F)O[C@H](CN1)C2 [Example N51]
< 0.1	Fc1ccc2cc1-c1cnc3ccc(nn13)NCCN1CCC[C@H]1CO2 [Example N52]
< 0.1	C[C@H]1CN2CCNc3ccn4ncc(c4n3)-c3cc(ccc3F)OC[C@@H]2CN1 [Example N53]
< 0.1	C[C@H]1CN2CCNc3ccn4ncc(c4n3)-c3cc(ccc3F)O[C@H](CN1)C2 [Example N54]
< 0.1	CC1(C)CN2CCNc3ccn4ncc(c4n3)-c3cc(ccc3F)OC[C@@H]2CN1 [Example N55]
0.1 to 1	CC(C)[C@H]1CN2CCN(C)c3ccn4ncc(c4n3)-c3cc(ccc3F)OC[C@@H]2CN1 [Example N56]
< 0.1	Fc1ccc2cc1-c1cnn3ccc(nc13)N[C@H]1CCCN(CCO2)C1 [Example N57]
< 0.1	CC1(C)CN2CCNc3ccn4ncc(c4n3)-c3cc(ccc3F)O[C@H](CN1)C2 [Example N58]
< 0.1	Fc1ccc2cc1-c1cnn3ccc(nc13)N[C@@H]1CCN(CCO2)C1 [Example N60]
< 0.1	CN1c2ccn3ncc(c3n2)-c2cc(ccc2F)OCCN2CC[C@@H]1C2 [Example N61]
< 0.1	CC1(C)CN2CCNc3ccn4ncc(c4n3)-c3cc(ccc3F)OC[C@@H]2CN1C1CC1 [Example N62]
< 0.1	C=CCN1C[C@H]2COc3ccc(F)c(c3)-c3cnn4ccc(nc34)NCCN2CC1(C)C [Example N63]

Structure (SMILES)	IC50 [µM]
Fc1ccc2cc1-c1cnc3ccc(nn13)NCCN1CCCC[C@H](C1)O2 [Example N59]	< 0.1
